# Tests used:
# [1] = test system: RAW cells polarized from M0 to M1; test: M1-type macrophage inhibition: cell morphology and intracellular/extracellular ROS levels; type: cell-based
# [2] = test system: Mouse muscle cells (C2C12); test: Cytotoxicity by DAPI nuclei count; type: cell-based; settings: apigenin 2.5 and 5 μM, 96 hours
# Experimental: After 96 hours of incubation, cell nuclei were stained with DAPI.
# [3] = test system: MHC, IGF-IR, p-AKT, p-Foxo3a, MuRF1 in C2C12; test: Western blot of muscle generation and degradation proteins in CCM-treated cells; type: cell-based, mouse
# Description: Meanwhile, to evaluate the effect of the apigenin-glycated albumin composite on the expression of genes related to muscle generation and degradation, proteins were extracted from the cells of each experimental group and analyzed via western blotting.
# [4] = test system: Mouse muscle cells (C2C12); test: Muscle cell atrophy induced by cisplatin: myotube differentiation by immunofluorescence; type: cell-based; settings: 40 μM cisplatin, 2.5 and 5 μM, 48 hours
# [5] = test system: MHC, MyoG (myogenin) in C2C12; test: Western blot of MHC and MyoG in cisplatin-treated cells; type: cell-based, mouse; settings: reduced by cisplatin treatment
# Experimental: Additionally, proteins were extracted from each experimental cell group, and western blot analysis was conducted to examine the expression level of MyoG (myogenin), which induces muscle generation.
# [6] = test system: Mouse muscle cells (C2C12); test: Muscle atrophy induced by cancer cell-conditioned medium (CCM, CT26): myotube differentiation by immunofluorescence; type: cell-based; settings: CCM-induced atrophied cells, 2.5 μM, 48 hours
# Experimental: First, mouse muscle cells (C2C12) were cultured, and the culture medium was replaced with cancer cell-conditioned medium (CCM) from cultured CT26 (colon carcinoma) cells to induce muscle atrophy.
# (§1) Mouse muscle cells (C2C12) were first cultured, and then their medium was replaced with cancer cell-conditioned medium (CCM) from cultured mouse colon carcinoma cells (CT26) to induce muscle atrophy. The cells were treated with either 2.5 μM of ursolic acid alone or ursolic acid-glycated albumin and incubated for 48 hours. Thereafter, fluorescence expression was confirmed to evaluate the level of myotube differentiation.
# as §1, with “and” for “and then”, “soyasapogenol B” for “ursolic acid”, “soyasapogenol B-glycated” for “ursolic acid-glycated”
# as §1, with “and” for “and then”, “citrusinol” for “ursolic acid”, “citrusinol-glycated” for “ursolic acid-glycated”
structure (smiles),measurement,setting,value
O=c1cc(-c2ccc(O)cc2)oc2cc(O)cc(O)c12 [apigenin],RAW cell morphology,"[1]; RAW cells polarized from M0 to M1, FIG. 7a",maintained in the M0 type
same,ROS levels (intracellular/extracellular),"[1]; RAW cells polarized from M0 to M1, FIG. 7b",ROS reduction was observed
same,cytotoxicity (number of DAPI-stained nuclei),[2],neither the apigenin alone nor the apigenin-glycated albumin composite exhibited cytotoxicity
same,expression of IGF-IR,[3]; CCM treatment,increased expression
same,expression of MHC,[3]; CCM treatment,increased expression
same,expression of p-AKT,[3]; CCM treatment,increased expression
same,expression of p-Foxo3a,[3]; CCM treatment,increased expression
same,MuRF1 expression,[3]; elevated by CCM treatment,reduced
same,atrophy caused by cisplatin,[4],inhibited
same,MHC expression,[5],increased
same,MyoG expression,[5],increased
CC1(C)C=Cc2c(cc(O)c3c(=O)c(O)c(-c4ccc(O)cc4)oc23)O1 [citrusinol],MHC expression (immunofluorescence),[6],increased
CC1(C)C[C@@H](O)[C@]2(C)CC[C@]3(C)C(=CC[C@@H]4[C@@]5(C)CC[C@H](O)[C@](C)(CO)[C@@H]5CC[C@]43C)[C@@H]2C1 [soyasapogenol B],MHC expression (immunofluorescence),[6],increased
C[C@H]1[C@H](C)CC[C@]2(C(=O)O)CC[C@]3(C)C(=CC[C@@H]4[C@@]5(C)CC[C@H](O)C(C)(C)[C@@H]5CC[C@]43C)[C@H]12 [ursolic acid],MHC expression (immunofluorescence),[6],increased
